Assay results from ChEMBL document CHEMBL1137331 (J Med Chem, 2006).

Legend:
[1] = biological target: Tyrosine-protein kinase Lck (Homo sapiens, UniProt P06239)
Description: Inhibition of human Lck in presence of ATP

[2] = system: T-cell; experiment: Inhibition of anti CD3/anti CD28-induced T cell proliferation; type: functional, cell-based; conditions: Homo sapiens
[3] = biological target: Proto-oncogene tyrosine-protein kinase LCK (Mus musculus) (UniProt P06240); conditions: 50 uM
Description: Inhibition of murine Lck at 50 uM

[4] = biological target: Proto-oncogene tyrosine-protein kinase LCK (Mus musculus, UniProt P06240)
Chain of Proto-oncogene tyrosine-protein kinase LCK (P06240 whole entry): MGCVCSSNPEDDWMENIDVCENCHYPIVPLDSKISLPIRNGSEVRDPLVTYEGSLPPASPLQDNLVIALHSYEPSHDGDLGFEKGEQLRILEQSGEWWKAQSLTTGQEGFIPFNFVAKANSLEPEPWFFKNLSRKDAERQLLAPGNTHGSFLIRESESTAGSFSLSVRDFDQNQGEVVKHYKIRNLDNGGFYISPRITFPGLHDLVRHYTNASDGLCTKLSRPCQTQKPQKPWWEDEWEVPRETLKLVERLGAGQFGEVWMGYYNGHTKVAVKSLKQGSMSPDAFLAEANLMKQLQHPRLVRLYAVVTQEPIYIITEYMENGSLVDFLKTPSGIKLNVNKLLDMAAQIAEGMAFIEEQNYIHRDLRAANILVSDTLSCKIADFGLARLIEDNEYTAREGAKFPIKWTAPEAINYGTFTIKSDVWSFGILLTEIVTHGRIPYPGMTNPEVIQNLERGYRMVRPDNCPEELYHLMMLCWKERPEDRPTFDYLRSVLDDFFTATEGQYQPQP
Description: Inhibition of murine Lck in presence of ATP

[5] = biological target: Tyrosine-protein kinase Lyn (Homo sapiens, UniProt P07948); experiment: Inhibition of Lyn
Chain of Tyrosine-protein kinase Lyn (P07948 whole entry): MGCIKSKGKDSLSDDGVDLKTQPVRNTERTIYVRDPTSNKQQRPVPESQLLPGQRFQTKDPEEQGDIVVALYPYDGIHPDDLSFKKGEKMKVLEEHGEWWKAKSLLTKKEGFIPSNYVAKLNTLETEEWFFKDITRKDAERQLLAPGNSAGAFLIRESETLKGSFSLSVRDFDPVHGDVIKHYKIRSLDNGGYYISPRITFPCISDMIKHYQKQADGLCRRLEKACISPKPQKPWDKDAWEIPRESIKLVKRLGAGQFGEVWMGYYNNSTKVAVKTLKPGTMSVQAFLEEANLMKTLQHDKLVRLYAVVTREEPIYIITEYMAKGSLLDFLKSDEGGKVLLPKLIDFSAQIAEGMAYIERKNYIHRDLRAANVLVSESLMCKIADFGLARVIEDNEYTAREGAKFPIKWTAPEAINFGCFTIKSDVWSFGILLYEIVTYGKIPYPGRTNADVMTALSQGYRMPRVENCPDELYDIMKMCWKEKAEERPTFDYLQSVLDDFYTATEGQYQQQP

[6] = system: Mus musculus; experiment: Inhibition of anti CD3/anti CD28-induced IL2 production in po dosed BALB/c mouse; type: functional
[7] = system: Rattus norvegicus; experiment: Volume of distribution in rat at 10 mg/kg, iv and po; type: ADME, organism-based; parameters: dose 10 mg/kg, route oral; conditions: in vivo
[8] = biological target: Tyrosine-protein kinase Yes (Homo sapiens, UniProt P07947); experiment: Inhibition of Yes
Chain of Tyrosine-protein kinase Yes (P07947 whole entry): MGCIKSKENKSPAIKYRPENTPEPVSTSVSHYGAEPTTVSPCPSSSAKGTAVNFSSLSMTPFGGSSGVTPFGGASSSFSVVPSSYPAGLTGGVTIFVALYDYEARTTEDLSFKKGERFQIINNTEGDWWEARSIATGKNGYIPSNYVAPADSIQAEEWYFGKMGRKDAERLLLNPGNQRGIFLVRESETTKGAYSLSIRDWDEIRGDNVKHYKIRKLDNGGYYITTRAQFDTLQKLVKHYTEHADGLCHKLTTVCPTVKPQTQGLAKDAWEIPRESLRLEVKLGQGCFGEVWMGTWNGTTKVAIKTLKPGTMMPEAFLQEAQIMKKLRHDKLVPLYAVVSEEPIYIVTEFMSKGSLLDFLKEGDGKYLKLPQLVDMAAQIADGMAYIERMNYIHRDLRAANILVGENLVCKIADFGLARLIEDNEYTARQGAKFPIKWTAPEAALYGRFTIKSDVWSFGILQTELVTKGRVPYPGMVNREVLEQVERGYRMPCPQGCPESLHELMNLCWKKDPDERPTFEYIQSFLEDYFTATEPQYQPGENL

[9] = biological target: Receptor tyrosine-protein kinase erbB-2 (Homo sapiens, UniProt P04626); experiment: Inhibition of Her2
[10] = biological target: Tyrosine-protein kinase Fgr (Homo sapiens, UniProt P09769); experiment: Inhibition of Fgr
Chain of Tyrosine-protein kinase Fgr (P09769 whole entry): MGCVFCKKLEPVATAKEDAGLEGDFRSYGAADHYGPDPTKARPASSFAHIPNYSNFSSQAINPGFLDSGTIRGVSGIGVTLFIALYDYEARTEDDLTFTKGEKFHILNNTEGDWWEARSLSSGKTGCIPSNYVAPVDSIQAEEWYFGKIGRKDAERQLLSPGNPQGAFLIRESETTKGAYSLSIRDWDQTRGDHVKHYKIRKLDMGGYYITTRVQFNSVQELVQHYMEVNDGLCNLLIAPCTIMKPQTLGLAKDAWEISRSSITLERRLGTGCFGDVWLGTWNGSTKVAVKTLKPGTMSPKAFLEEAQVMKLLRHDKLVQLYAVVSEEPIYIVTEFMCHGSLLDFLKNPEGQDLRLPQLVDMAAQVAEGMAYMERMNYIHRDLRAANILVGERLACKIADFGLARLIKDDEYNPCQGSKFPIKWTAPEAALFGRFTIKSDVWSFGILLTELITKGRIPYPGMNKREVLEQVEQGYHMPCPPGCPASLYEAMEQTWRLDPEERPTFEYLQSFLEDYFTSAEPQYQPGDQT

[11] = biological target: Proto-oncogene tyrosine-protein kinase Src (Homo sapiens, UniProt P12931); experiment: Inhibition of Src in presence of ATP
Chain of Proto-oncogene tyrosine-protein kinase Src (P12931 2-536 limits assumed): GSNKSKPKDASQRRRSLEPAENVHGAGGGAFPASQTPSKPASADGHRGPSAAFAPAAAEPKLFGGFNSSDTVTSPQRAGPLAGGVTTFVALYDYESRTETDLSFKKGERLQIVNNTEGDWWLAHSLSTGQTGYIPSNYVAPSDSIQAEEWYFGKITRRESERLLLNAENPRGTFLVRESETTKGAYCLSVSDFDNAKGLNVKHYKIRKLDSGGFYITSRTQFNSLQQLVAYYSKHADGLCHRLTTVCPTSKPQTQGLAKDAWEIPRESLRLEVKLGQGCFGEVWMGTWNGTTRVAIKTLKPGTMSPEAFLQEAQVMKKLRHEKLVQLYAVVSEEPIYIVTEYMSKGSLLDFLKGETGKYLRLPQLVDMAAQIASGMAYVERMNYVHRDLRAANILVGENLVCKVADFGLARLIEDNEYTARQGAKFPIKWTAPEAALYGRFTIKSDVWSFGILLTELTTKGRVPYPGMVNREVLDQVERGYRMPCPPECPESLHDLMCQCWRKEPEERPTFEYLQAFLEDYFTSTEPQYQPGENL

[12] = biological target: Fibroblast growth factor receptor 1 (Homo sapiens, UniProt P11362); experiment: Inhibition of FGFR1
Chain of Fibroblast growth factor receptor 1 (P11362 whole entry): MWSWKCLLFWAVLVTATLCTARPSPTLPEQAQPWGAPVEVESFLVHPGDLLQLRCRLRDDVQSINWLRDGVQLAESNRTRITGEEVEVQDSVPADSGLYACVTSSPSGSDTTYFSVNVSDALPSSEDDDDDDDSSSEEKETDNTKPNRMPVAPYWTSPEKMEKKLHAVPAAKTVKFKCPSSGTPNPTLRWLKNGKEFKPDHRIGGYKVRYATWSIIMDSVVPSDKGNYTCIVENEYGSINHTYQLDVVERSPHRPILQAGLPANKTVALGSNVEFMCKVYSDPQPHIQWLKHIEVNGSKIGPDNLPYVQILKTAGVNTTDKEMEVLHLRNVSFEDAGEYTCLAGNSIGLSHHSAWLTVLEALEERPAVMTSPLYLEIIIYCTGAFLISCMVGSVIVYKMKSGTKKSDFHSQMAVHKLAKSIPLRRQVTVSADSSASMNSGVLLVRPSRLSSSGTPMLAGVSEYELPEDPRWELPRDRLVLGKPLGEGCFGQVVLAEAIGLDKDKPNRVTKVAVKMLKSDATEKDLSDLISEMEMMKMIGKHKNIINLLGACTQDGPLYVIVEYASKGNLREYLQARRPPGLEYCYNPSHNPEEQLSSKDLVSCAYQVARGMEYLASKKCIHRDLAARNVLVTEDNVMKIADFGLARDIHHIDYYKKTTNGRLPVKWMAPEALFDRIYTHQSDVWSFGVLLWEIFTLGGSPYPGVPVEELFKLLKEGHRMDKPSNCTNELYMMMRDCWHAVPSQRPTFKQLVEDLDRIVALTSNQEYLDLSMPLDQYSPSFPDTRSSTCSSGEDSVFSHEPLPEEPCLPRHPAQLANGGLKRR

[13] = system: Mus musculus; experiment: Inhibition of LPS-induced TNFalpha production in C57BL/6 mouse at 60 mg/kg, po; conditions: C57BL/6, po
[14] = system: PBMC; experiment: Inhibition of LPS-induced TNFalpha production in human PBMC; type: functional, cell-based

Chain of Tyrosine-protein kinase Lck (P06239 whole entry): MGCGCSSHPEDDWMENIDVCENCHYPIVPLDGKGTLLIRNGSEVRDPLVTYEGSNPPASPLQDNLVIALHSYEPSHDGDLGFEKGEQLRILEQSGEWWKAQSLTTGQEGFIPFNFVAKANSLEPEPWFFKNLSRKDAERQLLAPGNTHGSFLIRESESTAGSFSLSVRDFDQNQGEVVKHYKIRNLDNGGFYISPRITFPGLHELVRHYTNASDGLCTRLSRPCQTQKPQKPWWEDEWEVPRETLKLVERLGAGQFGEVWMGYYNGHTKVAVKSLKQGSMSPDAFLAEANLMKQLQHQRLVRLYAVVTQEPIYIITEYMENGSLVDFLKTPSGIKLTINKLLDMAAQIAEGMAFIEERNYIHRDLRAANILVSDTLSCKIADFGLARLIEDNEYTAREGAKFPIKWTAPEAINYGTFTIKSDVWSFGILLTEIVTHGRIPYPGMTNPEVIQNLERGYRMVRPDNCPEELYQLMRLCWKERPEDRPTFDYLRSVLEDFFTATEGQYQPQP
Chain of Proto-oncogene tyrosine-protein kinase LCK (Mus musculus) (P06240 2-509 limits assumed): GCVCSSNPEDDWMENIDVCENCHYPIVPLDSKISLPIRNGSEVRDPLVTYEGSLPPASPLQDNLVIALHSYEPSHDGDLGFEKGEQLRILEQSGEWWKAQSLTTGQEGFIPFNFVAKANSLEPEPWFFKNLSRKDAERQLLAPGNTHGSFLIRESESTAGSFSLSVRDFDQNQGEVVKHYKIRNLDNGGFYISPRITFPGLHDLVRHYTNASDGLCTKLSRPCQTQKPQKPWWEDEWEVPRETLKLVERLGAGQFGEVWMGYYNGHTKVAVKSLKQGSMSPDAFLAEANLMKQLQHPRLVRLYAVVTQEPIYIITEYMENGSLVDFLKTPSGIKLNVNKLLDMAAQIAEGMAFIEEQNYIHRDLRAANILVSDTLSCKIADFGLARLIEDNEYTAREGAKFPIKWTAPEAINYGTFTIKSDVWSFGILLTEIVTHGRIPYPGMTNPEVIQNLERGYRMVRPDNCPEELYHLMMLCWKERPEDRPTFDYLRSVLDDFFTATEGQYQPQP

SMILES | IC50 [1] | IC50 [2] | further results
Cc1cccc(Cl)c1NC(=O)c1sc(NC(=O)c2ccsc2)nc1C | 390 nM | – | –
Cc1cccc(Cl)c1NC(=O)c1cnc(Nc2cccc(NCCO)n2)s1 | < 0.2 nM | 75 nM | –
Cc1cccc(Cl)c1NC(=O)c1cnc(NC(=O)c2ccsc2)s1 | 17 nM | > 2000 nM | –
Cc1cccc(Cl)c1NC(=O)c1cnc(NC(=O)C2CCCC2)s1 | 1340 nM | – | –
Cc1nc(NC(=O)OC(C)(C)C)sc1C(=O)Nc1ccccc1 | – | – | inhibition [3]: 28%
Cc1ccnc(Nc2ncc(C(=O)Nc3c(C)cccc3Cl)s2)c1 | 0.5 nM | 80 nM | –
Cc1cc(C)c(NC(=O)c2cnc(Nc3ccccn3)s2)c(C)c1 | 5 nM | 510 nM | –
Cc1cc(C)c(NC(=O)c2sc(NC(=O)OCc3ccccc3)nc2C)c(C)c1 | – | – | IC50 [4]: 33300 nM
Cc1cccc(Cl)c1NC(=O)c1cnc(NC(=O)c2cccs2)s1 | 2230 nM | – | –
Cc1nc(Nc2ncc(C(=O)Nc3c(C)cccc3Cl)s2)cc(N2CCOCC2)n1 | 1.3 nM | 5 nM | –
Cc1cc(C)nc(Nc2ncc(C(=O)Nc3c(C)cccc3Cl)s2)n1 | 50 nM | – | –
Cc1cccc(Cl)c1NC(=O)c1cnc(Nc2ccccn2)s1 | 1.2 nM | 140 nM | –
Cc1nc(Nc2ncc(C(=O)Nc3c(C)cccc3Cl)s2)cc(N2CCC(CO)CC2)n1 | 0.7 nM | 4 nM | –
Cc1cccc(Cl)c1NC(=O)c1sc(NC(=O)c2cccs2)nc1C | 130 nM | – | –
Cc1cc(C)c(NC(=O)c2sc(NC(=O)NCc3ccccc3)nc2C)c(C)c1 | 130 nM | – | IC50 [4]: 100 nM
Cc1cccc(C)c1NC(=O)c1cnc(Nc2ccccn2)s1 | 1.2 nM | 180 nM | –
Cc1cccc(Cl)c1NC(=O)c1cnc(Nc2cccnn2)s1 | 4 nM | 350 nM | –
Cc1cccc(Cl)c1NC(=O)c1cnc(Nc2cccc(NCCCn3ccnc3)n2)s1 | < 0.5 nM | 2 nM | –
Cc1cc(C)c(NC(=O)c2sc(NC(=O)c3ccoc3)nc2C)c(C)c1 | 1200 nM | – | –
CC(=O)Nc1nc(C)c(C(=O)Nc2c(C)cc(C)cc2C)s1 | 480 nM | – | IC50 [4]: 510 nM
Cc1cc(C)c(NC(=O)c2cnc(Nc3cc(C)nc(C)n3)s2)c(C)c1 | 3 nM | 140 nM | –

SMILES | IC50 [1] | IC50 [2] | further results
Cc1nc(NCCCN2CCOCC2)cc(Nc2ncc(C(=O)Nc3c(C)cccc3Cl)s2)n1 | 0.7 nM | 7 nM | –
Cc1cc(Nc2ncc(C(=O)Nc3c(C)cccc3Cl)s2)nc(C)n1 | 1 nM | 80 nM | IC50 [5]: 4 nM; ED50 [6]: 5 mg/kg; Vss [7]: 12 L/kg; IC50 [8]: 2 nM; IC50 [9]: 500 nM; Ki [4]: 0.13 nM; IC50 [10]: 0.8 nM; IC50 [11]: < 2 nM; IC50 [12]: > 10000 nM; inhibition in vivo at 60 mg/kg [13]: 90%; IC50 [14]: 670 nM
Cc1cccc(Cl)c1NC(=O)c1cnc(Nc2cccc(NCCCN3CCOCC3)n2)s1 | 0.5 nM | 8 nM | –
Cc1cccc(Cl)c1NC(=O)c1cnc(Nc2cccnc2)s1 | 6.7 nM | 870 nM | –
Cc1cnc(Nc2ncc(C(=O)Nc3c(C)cccc3Cl)s2)c(C)n1 | 6.3 nM | 570 nM | –
Cc1nc(Nc2ncc(C(=O)Nc3c(C)cccc3Cl)s2)cc(N2CCN(CCO)CC2)n1 [DASATINIB] | – | 3 nM | –
Cc1ccc(NC(=O)c2sc(NC(=O)OC(C)(C)C)nc2C)c(C)c1 | – | – | IC50 [4]: 27400 nM
Cc1cccc(Cl)c1NC(=O)c1cnc(Nc2cc(N3CCOCC3)ncn2)s1 | 0.5 nM | 3 nM | –
Cc1cc(C)c(NC(=O)c2sc(NC(=O)C(C)(C)C)nc2C)c(C)c1 | 12100 nM | – | –
Cc1cc(C)nc(Nc2ncc(C(=O)Nc3c(C)cccc3Cl)s2)c1 | 4 nM | 140 nM | –
Cc1nc(NCCO)cc(Nc2ncc(C(=O)Nc3c(C)cccc3Cl)s2)n1 | 0.2 nM | 23 nM | –
Cc1cc(C)c(NC(=O)c2sc(NC(=O)c3ccsc3)nc2C)c(C)c1 | 180 nM | – | –
Cc1cccc(Nc2ncc(C(=O)Nc3c(C)cccc3Cl)s2)n1 | 0.6 nM | 110 nM | –
Cc1cccc(C)c1NC(=O)c1cnc(Nc2cccnn2)s1 | 0.3 nM | 350 nM | –
Cc1cccc(Cl)c1NC(=O)c1cnc(Nc2ccncc2)s1 | 9.4 nM | 270 nM | –
Cc1cc(C)c(NC(=O)c2cnc(Nc3cnccn3)s2)c(C)c1 | 4.9 nM | 500 nM | –
Cc1cccc(Cl)c1NC(=O)c1cnc(NC(=O)C2CC2)s1 | – | 884 nM | –
Cc1cc(C)c(NC(=O)c2sc(N)nc2C)c(C)c1 | – | > 10000 nM | –
Cc1cc(C)c(NC(=O)c2sc(NC(=O)Nc3ccccc3)nc2C)c(C)c1 | 160 nM | – | IC50 [4]: 90 nM
Cc1cc(C)c(NC(=O)c2sc(NC(=O)NC(C)(C)C)nc2C)c(C)c1 | 1300 nM | – | –
